Numbering of substitutions follows the chain as printed. Entries after “also recorded” stand apart in the source; their conditions may differ.
These compounds were tested on FLJXXXXX-derived proteins (assay: SEC/MS spin column interaction analysis of FLJXXXXX-derived proteins and various compounds (Tables 30-1 to 30-4)). Conditions: SEC spin column filtrate, spectral intensity increased with doses of compound and protein.
Assay type: binding, human

Row | SMILES | FLJ No of the derived protein with which the compound was judged to exhibit a concentration-dependent interaction
1 | OCCN1CCN(CCCN2c3ccccc3Sc3ccc(C(F)(F)F)cc32)CC1 [fluphenazine] | FLJ38897; also recorded: FLJ41991
2 | OC(c1cc(C(F)(F)F)nc2c(C(F)(F)F)cccc12)C1CCCCN1 (stereo not drawn) [mefloquine] | FLJ37909; also recorded: FLJ38897; also recorded: FLJ41991
3 | OCCN1CCN(CCCN2c3ccccc3Sc3ccc(Cl)cc32)CC1 [perphenazine] | FLJ38897; also recorded: FLJ41991

These compounds were tested against T1, FLJ41991-derived protein (Homo sapiens, UniProt P57764, E293G) (assay: SEC/MS interaction analysis, FLJ41991-derived protein (GSDMDC1)). Conditions: compound 12.5 μM, protein 0 μM.
T1 construct: His-tag (N); made in house; host or cells: Escherichia coli BL21star(DE3)pLysS (pDEST17)
T1 sequence (P57764 265-484 E293G): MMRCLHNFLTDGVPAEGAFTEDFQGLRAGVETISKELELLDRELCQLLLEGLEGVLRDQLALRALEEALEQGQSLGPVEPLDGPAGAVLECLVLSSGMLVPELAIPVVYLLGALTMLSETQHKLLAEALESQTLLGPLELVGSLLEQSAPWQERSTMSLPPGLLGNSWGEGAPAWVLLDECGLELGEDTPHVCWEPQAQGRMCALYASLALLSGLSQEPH
Assay type: binding
Description: (§1) To analyze the interactions between commonly used drugs and proteins expressed from human full-length cDNA clones while keeping both the proteins and the compounds in non-modified, non-immobilized state, size exclusion chromatography (SEC) and mass analysis were used in combination. The specific procedures are shown below.
(§2) The compound-protein mixture prepared in step 1 was subjected to chromatography using an SEC column, the compound and the protein were separated by SEC, and the compound that interacted with the bound compound or protein contained in the protein fraction was analyzed using a mass analyzer.
(§3) Protein concentrations were measured using BCA Protein Assay (PIERCE), in consideration of the purity calculated by SDS-PAGE.
(§4) Mass analysis was performed using LCQ DECA XP (Thermoelectron) or Q-TOF micro (Micromass), equipped with an ESI probe. The LC pump used was Agilent 1100 (Yokogawa Analytical Systems), and the autosampler used was HTC-PAL (CTC Analytics) equipped with a cooling stacker. The SEC column used was a micro-LC column or a 384-well spin column. […]
(§5) In the 384-well spin column method, Unifilter 100 (Whatman), packed with 10 μL (dry volume) of Bio-Gel P6 (BIO-RAD) and swollen with milliQ water, was used as the SEC column. […] The SEC spin column was mounted on an acetonitrile-aliquoted 384-well U-bottom plate and centrifuged; the SEC spin column filtrate, which is a protein fraction, was recovered in 50% acetonitrile. The protein precipitate produced by the acetonitrile was removed via centrifugation and filtration for deproteinization; the resulting filtrate was concentrated by centrifugal concentration and re-dissolved in 10 μL of 50% methanol to obtain a mass analysis sample. The mobile phase supplied to the mass analyzer was 0.1% formic acid/50% methanol solution in the positive ion mode, and 0.1% ammonia/50% methanol solution in the negative ion mode; these mobile phases were used at a flow rate of 40 μL/min. 2-μL of mass analysis samples were injected using an autosampler at 2-minute intervals; the mass spectral intensity of the compound was measured to retrieve the spectral intensity of the pharmaceutical compound contained in the SEC spin column filtrate (protein fraction eluted from SEC).

Row | SMILES | spectrum intensity of the compound in the SEC spin column filtrate
4 | OCCN1CCN(CCCN2c3ccccc3Sc3ccc(C(F)(F)F)cc32)CC1 [fluphenazine] | 87861
5 | OC(c1cc(C(F)(F)F)nc2c(C(F)(F)F)cccc12)C1CCCCN1 (stereo not drawn) [mefloquine] | 16334
6 | OCCN1CCN(CCCN2c3ccccc3Sc3ccc(Cl)cc32)CC1 [perphenazine] | 23424

Same assay, conditions: compound 12.5 μM, protein 5 μM

Row | SMILES | spectrum intensity of the compound in the SEC spin column filtrate
7 | OCCN1CCN(CCCN2c3ccccc3Sc3ccc(C(F)(F)F)cc32)CC1 [fluphenazine] | 162795
8 | OC(c1cc(C(F)(F)F)nc2c(C(F)(F)F)cccc12)C1CCCCN1 (stereo not drawn) [mefloquine] | 46239
9 | OCCN1CCN(CCCN2c3ccccc3Sc3ccc(Cl)cc32)CC1 [perphenazine] | 43607

Same assay, conditions: compound 12.5 μM, protein 10 μM

Row | SMILES | spectrum intensity of the compound in the SEC spin column filtrate
10 | OCCN1CCN(CCCN2c3ccccc3Sc3ccc(C(F)(F)F)cc32)CC1 [fluphenazine] | 434899
11 | OC(c1cc(C(F)(F)F)nc2c(C(F)(F)F)cccc12)C1CCCCN1 (stereo not drawn) [mefloquine] | 101775
12 | OCCN1CCN(CCCN2c3ccccc3Sc3ccc(Cl)cc32)CC1 [perphenazine] | 83672

Same assay, conditions: compound 12.5 μM, protein 25 μM

Row | SMILES | spectrum intensity of the compound in the SEC spin column filtrate
13 | OCCN1CCN(CCCN2c3ccccc3Sc3ccc(C(F)(F)F)cc32)CC1 [fluphenazine] | 1101486
14 | OC(c1cc(C(F)(F)F)nc2c(C(F)(F)F)cccc12)C1CCCCN1 (stereo not drawn) [mefloquine] | 453818
15 | OCCN1CCN(CCCN2c3ccccc3Sc3ccc(Cl)cc32)CC1 [perphenazine] | 314285

Same assay, conditions: compound 25 μM, protein 0 μM

Row | SMILES | spectrum intensity of the compound in the SEC spin column filtrate
16 | OCCN1CCN(CCCN2c3ccccc3Sc3ccc(C(F)(F)F)cc32)CC1 [fluphenazine] | 193639
17 | OC(c1cc(C(F)(F)F)nc2c(C(F)(F)F)cccc12)C1CCCCN1 (stereo not drawn) [mefloquine] | 27931
18 | OCCN1CCN(CCCN2c3ccccc3Sc3ccc(Cl)cc32)CC1 [perphenazine] | 38186

Same assay, conditions: compound 25 μM, protein 5 μM

Row | SMILES | spectrum intensity of the compound in the SEC spin column filtrate
19 | OCCN1CCN(CCCN2c3ccccc3Sc3ccc(C(F)(F)F)cc32)CC1 [fluphenazine] | 276524
20 | OC(c1cc(C(F)(F)F)nc2c(C(F)(F)F)cccc12)C1CCCCN1 (stereo not drawn) [mefloquine] | 100287
21 | OCCN1CCN(CCCN2c3ccccc3Sc3ccc(Cl)cc32)CC1 [perphenazine] | 71806

Same assay, conditions: compound 25 μM, protein 10 μM

Row | SMILES | spectrum intensity of the compound in the SEC spin column filtrate
22 | OCCN1CCN(CCCN2c3ccccc3Sc3ccc(C(F)(F)F)cc32)CC1 [fluphenazine] | 843648
23 | OC(c1cc(C(F)(F)F)nc2c(C(F)(F)F)cccc12)C1CCCCN1 (stereo not drawn) [mefloquine] | 273106
24 | OCCN1CCN(CCCN2c3ccccc3Sc3ccc(Cl)cc32)CC1 [perphenazine] | 229107

Same assay, conditions: compound 25 μM, protein 25 μM

Row | SMILES | spectrum intensity of the compound in the SEC spin column filtrate
25 | OCCN1CCN(CCCN2c3ccccc3Sc3ccc(C(F)(F)F)cc32)CC1 [fluphenazine] | 1778376
26 | OC(c1cc(C(F)(F)F)nc2c(C(F)(F)F)cccc12)C1CCCCN1 (stereo not drawn) [mefloquine] | 1788847
27 | OCCN1CCN(CCCN2c3ccccc3Sc3ccc(Cl)cc32)CC1 [perphenazine] | 799962

Same assay, conditions: compound 62.5 μM, protein 0 μM

Row | SMILES | spectrum intensity of the compound in the SEC spin column filtrate
28 | OCCN1CCN(CCCN2c3ccccc3Sc3ccc(C(F)(F)F)cc32)CC1 [fluphenazine] | 200313
29 | OC(c1cc(C(F)(F)F)nc2c(C(F)(F)F)cccc12)C1CCCCN1 (stereo not drawn) [mefloquine] | 97153
30 | OCCN1CCN(CCCN2c3ccccc3Sc3ccc(Cl)cc32)CC1 [perphenazine] | 35061

Same assay, conditions: compound 62.5 μM, protein 5 μM

Row | SMILES | spectrum intensity of the compound in the SEC spin column filtrate
31 | OCCN1CCN(CCCN2c3ccccc3Sc3ccc(C(F)(F)F)cc32)CC1 [fluphenazine] | 1055670
32 | OC(c1cc(C(F)(F)F)nc2c(C(F)(F)F)cccc12)C1CCCCN1 (stereo not drawn) [mefloquine] | 528117
33 | OCCN1CCN(CCCN2c3ccccc3Sc3ccc(Cl)cc32)CC1 [perphenazine] | 208220

Same assay, conditions: compound 62.5 μM, protein 10 μM

Row | SMILES | spectrum intensity of the compound in the SEC spin column filtrate
34 | OCCN1CCN(CCCN2c3ccccc3Sc3ccc(C(F)(F)F)cc32)CC1 [fluphenazine] | 3173659
35 | OC(c1cc(C(F)(F)F)nc2c(C(F)(F)F)cccc12)C1CCCCN1 (stereo not drawn) [mefloquine] | 2017157
36 | OCCN1CCN(CCCN2c3ccccc3Sc3ccc(Cl)cc32)CC1 [perphenazine] | 695158

Same assay, conditions: compound 62.5 μM, protein 25 μM

Row | SMILES | spectrum intensity of the compound in the SEC spin column filtrate
37 | OCCN1CCN(CCCN2c3ccccc3Sc3ccc(C(F)(F)F)cc32)CC1 [fluphenazine] | 6405132
38 | OC(c1cc(C(F)(F)F)nc2c(C(F)(F)F)cccc12)C1CCCCN1 (stereo not drawn) [mefloquine] | 4385022
39 | OCCN1CCN(CCCN2c3ccccc3Sc3ccc(Cl)cc32)CC1 [perphenazine] | 2872912

Same assay, conditions: spin column method; doses of both compound and protein varied

Row | SMILES | interaction judged from spectrum intensity of the compound in the SEC spin column filtrate (protein fraction eluted from SEC)
40 | OCCN1CCN(CCCN2c3ccccc3Sc3ccc(C(F)(F)F)cc32)CC1 [fluphenazine] | concentration-dependent interaction
41 | OC(c1cc(C(F)(F)F)nc2c(C(F)(F)F)cccc12)C1CCCCN1 (stereo not drawn) [mefloquine] | concentration-dependent interaction
42 | OCCN1CCN(CCCN2c3ccccc3Sc3ccc(Cl)cc32)CC1 [perphenazine] | concentration-dependent interaction

What follows are compounds tested against T2, FLJ38897-derived protein (Homo sapiens, UniProt P57764) (assay: SEC/MS interaction analysis, FLJ38897-derived protein (GSDMDC1)). Conditions: spin column method; mixture with protein vs buffer solution alone; data not shown.
T2 construct: His-tag (N); made in house; host or cells: Escherichia coli BL21star(DE3)pLysS
T2 sequence (P57764 265-484): T1 sequence (P57764 265-484 E293G) with G29E
Assay type: binding
Description: as §1, §2, §3, §4, §5

Row | SMILES | interaction judged from mass spectrum peak intensity of the compound in the spin column filtrate
43 | OCCN1CCN(CCCN2c3ccccc3Sc3ccc(C(F)(F)F)cc32)CC1 [fluphenazine] | there was an interaction
44 | OC(c1cc(C(F)(F)F)nc2c(C(F)(F)F)cccc12)C1CCCCN1 (stereo not drawn) [mefloquine] | there was an interaction
45 | OCCN1CCN(CCCN2c3ccccc3Sc3ccc(Cl)cc32)CC1 [perphenazine] | there was an interaction

Reference: patent publication US20090143285A1, “TARGET PROTEIN AND TARGET GENE FOR DRUG DISCOVERY AND SCREENING METHOD” (REVERSE PROTEOMICS RESEARCH INSTITUTE CO., LTD., priority 2005, published 2009)
